Structures can show the parent of a compound that is named as a salt.
Assays:
α4β2 nAChR = molecular target: T1, α4β2 nAChR (Rattus norvegicus, UniProt P09483+P12390); conditions: bupropion included as comparative value, not used in the trial; cited from earlier work
T1 construct: the rat complete brain P1 fraction (occupying 2 mg of wet tissue for each assay); from tissue; host or cells: whole rat brain, synaptosome pellet (fraction P1)
T1 sequence (P09483 31-630): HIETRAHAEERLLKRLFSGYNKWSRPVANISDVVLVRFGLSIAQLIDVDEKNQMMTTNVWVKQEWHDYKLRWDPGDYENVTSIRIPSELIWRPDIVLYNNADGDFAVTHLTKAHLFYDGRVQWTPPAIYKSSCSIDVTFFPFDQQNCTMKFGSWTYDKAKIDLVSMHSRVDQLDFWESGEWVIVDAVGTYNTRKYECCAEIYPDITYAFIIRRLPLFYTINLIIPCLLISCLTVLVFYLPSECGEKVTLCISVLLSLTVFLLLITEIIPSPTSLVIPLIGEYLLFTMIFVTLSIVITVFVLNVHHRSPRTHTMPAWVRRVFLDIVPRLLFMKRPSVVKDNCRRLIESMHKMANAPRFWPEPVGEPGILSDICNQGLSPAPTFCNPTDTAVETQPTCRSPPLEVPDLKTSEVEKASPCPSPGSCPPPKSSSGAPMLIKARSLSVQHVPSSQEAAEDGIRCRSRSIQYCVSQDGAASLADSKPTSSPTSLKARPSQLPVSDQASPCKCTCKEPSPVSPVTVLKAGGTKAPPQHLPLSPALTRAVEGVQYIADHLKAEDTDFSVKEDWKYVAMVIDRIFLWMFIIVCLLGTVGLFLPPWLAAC
T1 sequence (P12390 25-500): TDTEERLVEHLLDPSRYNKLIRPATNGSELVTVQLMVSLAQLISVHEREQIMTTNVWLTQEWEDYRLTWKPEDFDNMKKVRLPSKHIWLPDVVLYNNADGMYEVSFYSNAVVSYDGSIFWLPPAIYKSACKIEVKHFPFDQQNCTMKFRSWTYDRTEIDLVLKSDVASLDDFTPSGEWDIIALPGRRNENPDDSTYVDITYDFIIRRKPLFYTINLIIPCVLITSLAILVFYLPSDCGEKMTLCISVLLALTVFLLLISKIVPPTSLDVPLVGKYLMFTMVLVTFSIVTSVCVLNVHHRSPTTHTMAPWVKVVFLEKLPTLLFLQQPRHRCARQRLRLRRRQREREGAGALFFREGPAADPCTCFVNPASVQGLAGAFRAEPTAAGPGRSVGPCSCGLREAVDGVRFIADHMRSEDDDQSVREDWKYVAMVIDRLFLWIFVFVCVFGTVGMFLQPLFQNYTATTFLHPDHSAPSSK

Structure (SMILES) | melting point [°C] | Ki (α4β2 nAChR) [µM]
CN1CCCC1CCOC(=O)c1cccc(F)c1 (racemic) (as salt: hydrochloride) [Compound 8, (±)-2-(1-Methyl-2-pyrrolidinyl)ethyl 3-fluorobenzoate] | 106.8 to 107.5 | –
CN1CCCC1CCOC(=O)c1cccc(Cl)c1 (racemic) (as salt: hydrochloride) [Compound 9, (±)-2-(1-Methyl-2-pyrrolidinyl)ethyl 3-chlorobenzoate] | 144.7 to 146.2 | –
CN1CCCC1CCOC(=O)Cc1ccccc1 (racemic) (as salt: hydrochloride) [Compound 16, (±)-2-(-1-Methyl-2-pyrrolidinyl)ethyl 2-phenylacetate] | 86.7 to 87.4 | –
CN1CCCC1CCOC(=O)c1ccc2ccccc2c1 (racemic) (as salt: hydrochloride) [Compound 19, (±)-2-(1-Methyl-2-pyrrolidinyl)ethyl 2-naphthoate] | 155.6 to 157.4 | –
CN1CCCC1CCOC(=O)C(c1ccccc1)c1ccccc1 (racemic) (as salt: hydrochloride) [Compound 21, (±)-2-(-1-Methyl-2-pyrrolidinyl)ethyl 2,2-diphenylacetate] | 115.3 to 117.2 | –
CC(NC(C)(C)C)C(=O)c1cccc(Cl)c1 (stereo not drawn) [Bupropion] | – | 10
